Measured values published in patent publication US7868205B2, “Inhibitors of histone deacetylase” (MethylGene Inc., priority 2003, dated 2011).

What was measured:
[1] = system: HCT116 human colon cancer cells; assay: MTT assay, antiproliferative activity; assay type: cell-based; settings: HCT-116, 72 hours
Procedure: (§1) Table 6C provides data on inhibition of HDAC1 enzyme, on antiproliferative activities (HCT116 human colon cancer cells) of the compounds using 3-[4,5-dimethylthiazol-2-yl-2,5-diphenyltetrazolium]bromide (MTT) assay, as well as induction of p21^WAF1/Cip1 tumor suppressor gene.
Compounds at various concentrations were added to human colon cancer HCT116 cells plated in 96-well plates. Cells were incubated for 72 hours at 37° C. in 5% CO2 incubator. MTT (3-[4,5-dimethylthiazol-2-yl]-2,5 diphenyl tetrazolium bromide, Sigma) was added at a final concentration of 0.5 mg/ml and incubated with the cells for 4 hours before an equal volume of solubilization buffer (50% N,N-dimethylformamide, 20% SDS, pH 4.7) was added onto cultured cells. After overnight incubation, solubilized dye was quantified by colorimetric reading at […] using a reference at 630 nM. OD values were converted to cell numbers according to a standard growth curve of the relevant cell line. The concentration which reduces cell numbers to 50% of those of DMSO-treated cells is determined as MTT IC50,

human HDAC-1 = human HDAC-1 (Homo sapiens, UniProt Q13547); assay: Inhibition of histone deacetylase enzymatic (HDAC-1) activity; assay type: biochemical; settings: Table 6C
Sequence of human HDAC-1 (Q13547 whole entry): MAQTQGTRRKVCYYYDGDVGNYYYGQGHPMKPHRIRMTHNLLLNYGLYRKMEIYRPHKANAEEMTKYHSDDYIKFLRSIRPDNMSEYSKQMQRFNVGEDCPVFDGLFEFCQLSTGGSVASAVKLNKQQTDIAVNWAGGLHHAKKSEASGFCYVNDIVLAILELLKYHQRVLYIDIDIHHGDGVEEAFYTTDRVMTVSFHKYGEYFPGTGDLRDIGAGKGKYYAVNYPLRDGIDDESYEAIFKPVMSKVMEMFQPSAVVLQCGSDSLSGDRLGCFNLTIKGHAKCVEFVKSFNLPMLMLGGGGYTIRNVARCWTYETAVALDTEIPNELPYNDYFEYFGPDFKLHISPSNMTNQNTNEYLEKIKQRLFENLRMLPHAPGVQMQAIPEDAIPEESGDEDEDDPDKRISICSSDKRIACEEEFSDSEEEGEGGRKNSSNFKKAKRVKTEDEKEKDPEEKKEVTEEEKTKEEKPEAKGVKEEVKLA
Procedure: The following protocol was used to assay the compounds of the invention.
The mixture was pre-incubated for 5 minutes at room temperature. The reaction was started by bringing the temperature to 37° C. and adding 16 μl substrate.

[2] = system: p21^WAF1/Cip1 tumor suppressor gene; assay: p21WAF1/Cip1 assay (p21 promoter-driven luciferase reporter); assay type: cell-based, human; settings: HCT116 cells with p21 promoter-driven luciferase, 16 hours; compared with MS-275
Procedure: as §1
HCT116 cells were stably transfected with reporter plasmids encoding the p21 promoter-driven luciferase. Cells were treated with indicated concentration of HDAC inhibitors for 16 hours before cells were harvested and luciferase activity analyzed. The effective concentration (EC) of MS-275 was designated as 1 uM. The ability of HDAC inhibitor was compared with that of MS-275 (T. Suzuki, et. al J. Med. Chem., 1999, 3001-3003).

A549 human lung cancer = assay: Antineoplastic effects on human tumor xenografts in vivo, A549; settings: A549 xenograft in mice, daily injection
Procedure: (§2) Eight to ten week old female BCDI mice (Taconic Labs, Great Barrington, N.Y.) were injected subcutaneously in the flank area with 2×10^6 preconditioned HCTI 16 human colorectal carcinoma cells, A549 human lung cancer, SW48 human colorectal cancer, A431 vulval caracinoma and colo205 human colorectal cancer. Preconditioning of these cells was done by a minimum of three consecutive tumor transplantations in the same strain of nude mice. Subsequently, tumor fragments of approximately 30 mgs were excised and implanted subcutaneously in mice, in the left flank area, under Forene anesthesia (Abbott Labs, Geneva, Switzerland). When the tumors reached a mean volume of 100 mm^3, the mice were treated intravenously, subcutaneously, or intraperitoneally by daily injection, with a solution of the histone deacetylase inhibitor in an appropriate vehicle, such as PBS, DMSO/water, or Tween 80/water, at a starting dose of 10 mg/kg. The optimal dose of the HDAC inhibitor was established by dose response experiments according to standard protocols. Tumor volume was calculated every second day post infusion according to standard methods (e.g., Meyer et al., Int. J. Cancer 43: 851-856 (1989)).

A431 vulval carcinoma = assay: Antineoplastic effects on human tumor xenografts in vivo, A431; settings: A431 xenograft in mice, daily injection
Procedure: as §2

[3] = system: HCT116 human colorectal carcinoma cells; assay: Antineoplastic effects on human tumor xenografts in vivo, HCT116; settings: hct116 xenograft in mice, daily injection
Procedure: as §2

Row | Compound | IC50 [1] [nM] | IC50 (human HDAC-1) [nM] | P21 (HCT116) μM, effective concentration (EC) for induction of p21 [2] | antineoplastic effects (A549 human lung cancer) | antineoplastic effects (A431 vulval carcinoma) | antineoplastic effects [3]
1 | CN(C)CCOC(=O)Nc1ccc(C(=O)Nc2cc(-c3cccs3)ccc2N)cc1 [164cc, 2-(dimethylamino)ethyl 4-((2-amino-5-(thiophen-2-yl)phenyl)carbamoyl)phenylcarbamate] | < 1000 | < 1000 | b (1≦b≦20) |  |  | 
2 | CC(=O)Nc1ccc(C(=O)Nc2cc(-c3cccs3)ccc2N)cc1 [258aa, 4-acetamido-N-(2-amino-5-(thiophen-2-yl)phenyl)benzamide] | < 1000 |  | b (1≦b≦20) | antineoplastic effects | antineoplastic effects | antineoplastic effects
3 | Cc1cc(C)nc(N(C)c2ccc(C(=O)Nc3cc(-c4cccs4)ccc3N)cc2)n1 [258hh, N-(2-amino-5-(thiophen-2-yl)phenyl)-4-((4,6-dimethylpyrimidin-2-yl)(methyl)amino)benzamide] | < 1000 | < 1000 | b (1≦b≦20) |  |  | 
4 | Nc1ccc(-c2cccs2)cc1NC(=O)c1ccc(OC(=O)c2ccc(O)cc2)cc1 [258mm, 4-((2-amino-5-(thiophen-2-yl)phenyl)carbamoyl)phenyl 4-hydroxybenzoate] | < 1000 | < 1000 | b (1≦b≦20) |  |  | 
5 | Nc1ccc(-c2cccs2)cc1NC(=O)c1ccc(Cn2c(=O)[nH]c3ccccc3c2=O)cc1 [compound 349] | < 1000 | < 1000 | b (1≦b≦20) |  |  | 

Now from value to compound, other results behind:

Row | IC50 [1] [nM] | IC50 (human HDAC-1) [nM] | Compound | P21 (HCT116) μM, effective concentration (EC) for induction of p21 [2] | antineoplastic effects (A549 human lung cancer) | antineoplastic effects (A431 vulval carcinoma) | antineoplastic effects [3]
6 | < 1000 | < 1000 | Nc1ccc(-c2cccs2)cc1NC(=O)c1ccc2ncccc2c1 [258cc, N-(2-amino-5-(thiophen-2-yl)phenyl)quinoline-6-carboxamide] | b (1≦b≦20) |  |  | 
7 | 1000 to 20000 | < 1000 | Nc1ccc(-c2cccs2)cc1NC(=O)c1ccsc1 [258nn, N-(2-amino-5-(thiophen-2-yl)phenyl)thiophene-3-carboxamide] | b (1≦b≦20) |  |  | 
8 | < 1000 | < 1000 | Nc1ccc(-c2cccs2)cc1NC(=O)c1ccc(O)cc1 [258pp, N-(2-amino-5-(thiophen-2-yl)phenyl)-4-hydroxybenzamide] | b (1≦b≦20) |  |  | 
9 | < 1000 | < 1000 | COc1ccc(C(=O)Nc2cc(-c3cccs3)ccc2N)cc1 [258qq, N-(2-amino-5-(thiophen-2-yl)phenyl)-4-methoxybenzamide] | b (1≦b≦20) |  |  | 
10 | < 1000 | < 1000 | Cc1nc2ccc(C(=O)Nc3cc(-c4cccs4)ccc3N)cc2o1 [286aa, N-(2-amino-5-(thiophen-2-yl)phenyl)-2-methylbenzo[d]oxazole-6-carboxamide] | b (1≦b≦20) |  |  | 
